Experimental data as given in PubChem BioAssay (NCI).
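48-hour exposure; five concentrations; linearly interpolated endpoints. Here, GI50 denotes the concentration required for 50% inhibition of growth. TGI: total growth inhibition.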

How the values were obtained:
Experiment in all cases: NCI-60 cell line screen, 48 h
786-0 renal = tested on: 786-0 renal
A498 renal = tested on: A498 renal
A549 NSCLC = tested on: A549 NSCLC
ACHN renal = tested on: ACHN renal
BT-549 breast = tested on: BT-549 breast
CAKI-1 renal = tested on: CAKI-1 renal
CCRF-CEM leukemia = tested on: CCRF-CEM leukemia
COLO 205 colon = tested on: COLO 205 colon
DU-145 prostate = tested on: DU-145 prostate
EKVX NSCLC = tested on: EKVX NSCLC
HCC-2998 colon = tested on: HCC-2998 colon
HCT-116 colon = tested on: HCT-116 colon
HCT-15 colon = tested on: HCT-15 colon
HL-60(TB) leukemia = tested on: HL-60(TB) leukemia
HOP-62 NSCLC = tested on: HOP-62 NSCLC
HOP-92 NSCLC = tested on: HOP-92 NSCLC
HS 578T breast = tested on: HS 578T breast
HT29 colon = tested on: HT29 colon
IGROV1 ovarian = tested on: IGROV1 ovarian
K-562 leukemia = tested on: K-562 leukemia
KM12 colon = tested on: KM12 colon
LOX IMVI melanoma = tested on: LOX IMVI melanoma
M14 melanoma = tested on: M14 melanoma
MALME-3M melanoma = tested on: MALME-3M melanoma
MCF7 breast = tested on: MCF7 breast
MDA-MB-231 breast = tested on: MDA-MB-231 breast
MDA-MB-435 = tested on: MDA-MB-435
MOLT-4 leukemia = tested on: MOLT-4 leukemia
NCI-H226 lung = tested on: NCI-H226 lung
NCI-H23 lung = tested on: NCI-H23 lung
NCI-H460 lung = tested on: NCI-H460 lung
NCI-H522 lung = tested on: NCI-H522 lung
NCI/ADR-RES ovarian = tested on: NCI/ADR-RES ovarian
OVCAR-4 ovarian = tested on: OVCAR-4 ovarian
OVCAR-5 ovarian = tested on: OVCAR-5 ovarian
OVCAR-8 ovarian = tested on: OVCAR-8 ovarian
PC-3 prostate = tested on: PC-3 prostate
RPMI-8226 leukemia = tested on: RPMI-8226 leukemia
RXF 393 renal = tested on: RXF 393 renal
SF-268 CNS = tested on: SF-268 CNS
SF-295 CNS = tested on: SF-295 CNS
SF-539 CNS = tested on: SF-539 CNS
SK-MEL-2 melanoma = tested on: SK-MEL-2 melanoma
SK-MEL-28 melanoma = tested on: SK-MEL-28 melanoma
SK-MEL-5 melanoma = tested on: SK-MEL-5 melanoma
SK-OV-3 ovarian = tested on: SK-OV-3 ovarian
SN12C renal = tested on: SN12C renal
SNB-19 CNS = tested on: SNB-19 CNS
SNB-75 CNS = tested on: SNB-75 CNS
SR leukemia = tested on: SR leukemia
SW-620 colon = tested on: SW-620 colon
T-47D breast = tested on: T-47D breast
TK-10 renal = tested on: TK-10 renal
U251 CNS = tested on: U251 CNS
UACC-257 melanoma = tested on: UACC-257 melanoma
UACC-62 melanoma = tested on: UACC-62 melanoma
UO-31 renal = tested on: UO-31 renal

SMILES: O=C(NNc1nc2cc(F)c(F)cc2n2c(CN3CC4CNCC4C3)ccc12)c1cnccn1 (centres undefined)
- GI50 (786-0 renal): 0.609 µM
- TGI (786-0 renal): 12.4 µM
- GI50 (A498 renal): 0.522 µM
- TGI (A498 renal): 4.22 µM
- GI50 (A549 NSCLC): 0.851 µM
- TGI (A549 NSCLC): 10.6 µM
- GI50 (ACHN renal): 0.429 µM
- TGI (ACHN renal): 7.82 µM
- GI50 (BT-549 breast): 2.42 µM
- TGI (BT-549 breast): 13.8 µM
- GI50 (CAKI-1 renal): 0.415 µM
- TGI (CAKI-1 renal): 9.69 µM
- GI50 (CCRF-CEM leukemia): 0.706 µM
- TGI (CCRF-CEM leukemia): 27.5 µM
- GI50 (COLO 205 colon): 0.874 µM
- TGI (COLO 205 colon): 13.8 µM
- GI50 (DU-145 prostate): 1.3 µM
- TGI (DU-145 prostate): 11.8 µM
- GI50 (EKVX NSCLC): 0.732 µM
- TGI (EKVX NSCLC): 13.8 µM
- GI50 (HCC-2998 colon): 2.74 µM
- TGI (HCC-2998 colon): 16.5 µM
- GI50 (HCT-116 colon): 0.588 µM
- TGI (HCT-116 colon): 15.8 µM
- GI50 (HCT-15 colon): 0.363 µM
- TGI (HCT-15 colon): 16.2 µM
- GI50 (HL-60(TB) leukemia): 1.15 µM
- TGI (HL-60(TB) leukemia): 4.36 µM
- GI50 (HOP-62 NSCLC): 0.459 µM
- TGI (HOP-62 NSCLC): 5.23 µM
- GI50 (HOP-92 NSCLC): 3.01 µM
- TGI (HOP-92 NSCLC): 17.4 µM
- GI50 (HS 578T breast): 3.33 µM
- TGI (HS 578T breast): 20.6 µM
- GI50 (HT29 colon): 0.726 µM
- TGI (HT29 colon): 15.2 µM
- GI50 (IGROV1 ovarian): 0.904 µM
- TGI (IGROV1 ovarian): 10.8 µM
- GI50 (K-562 leukemia): 0.785 µM
- TGI (K-562 leukemia): > 100 µM
- GI50 (KM12 colon): 0.74 µM
- TGI (KM12 colon): 12.7 µM
- GI50 (LOX IMVI melanoma): 0.608 µM
- TGI (LOX IMVI melanoma): 6.7 µM
- GI50 (M14 melanoma): 0.611 µM
- TGI (M14 melanoma): 12.3 µM
- GI50 (MALME-3M melanoma): 1.75 µM
- TGI (MALME-3M melanoma): 9.7 µM
- GI50 (MCF7 breast): 1.41 µM
- TGI (MCF7 breast): 12.3 µM
- GI50 (MDA-MB-231 breast): 3.65 µM
- TGI (MDA-MB-231 breast): 20.6 µM
- GI50 (MDA-MB-435): 2.53 µM
- TGI (MDA-MB-435): 16.3 µM
- GI50 (MOLT-4 leukemia): 0.764 µM
- TGI (MOLT-4 leukemia): 13.6 µM
- GI50 (NCI-H226 lung): 1.23 µM
- TGI (NCI-H226 lung): 14.5 µM
- GI50 (NCI-H23 lung): 2.47 µM
- TGI (NCI-H23 lung): 14.3 µM
- GI50 (NCI-H460 lung): 0.463 µM
- TGI (NCI-H460 lung): 4.72 µM
- GI50 (NCI-H522 lung): 2.34 µM
- TGI (NCI-H522 lung): 6.26 µM
- GI50 (NCI/ADR-RES ovarian): 2.6 µM
- TGI (NCI/ADR-RES ovarian): 14.3 µM
- GI50 (OVCAR-4 ovarian): 0.995 µM
- TGI (OVCAR-4 ovarian): 20.6 µM
- GI50 (OVCAR-5 ovarian): 1.75 µM
- TGI (OVCAR-5 ovarian): 16.8 µM
- GI50 (OVCAR-8 ovarian): 0.547 µM
- TGI (OVCAR-8 ovarian): 7.83 µM
- GI50 (PC-3 prostate): 1.25 µM
- TGI (PC-3 prostate): 16.1 µM
- GI50 (RPMI-8226 leukemia): 1.3 µM
- TGI (RPMI-8226 leukemia): 11.8 µM
- GI50 (RXF 393 renal): 1.27 µM
- TGI (RXF 393 renal): 9.46 µM
- GI50 (SF-268 CNS): 0.962 µM
- TGI (SF-268 CNS): 10.8 µM
- GI50 (SF-295 CNS): 0.44 µM
- TGI (SF-295 CNS): 11.2 µM
- GI50 (SF-539 CNS): 1.07 µM
- TGI (SF-539 CNS): 4.42 µM
- GI50 (SK-MEL-2 melanoma): 1.89 µM
- TGI (SK-MEL-2 melanoma): 11.4 µM
- GI50 (SK-MEL-28 melanoma): 2.11 µM
- TGI (SK-MEL-28 melanoma): 14.5 µM
- GI50 (SK-MEL-5 melanoma): 1.65 µM
- TGI (SK-MEL-5 melanoma): 4.34 µM
- GI50 (SK-OV-3 ovarian): 0.811 µM
- TGI (SK-OV-3 ovarian): 9.06 µM
- GI50 (SN12C renal): 2.06 µM
- TGI (SN12C renal): 11.4 µM
- GI50 (SNB-19 CNS): 2.2 µM
- TGI (SNB-19 CNS): 18.8 µM
- GI50 (SNB-75 CNS): 2.16 µM
- TGI (SNB-75 CNS): 14.1 µM
- GI50 (SR leukemia): 0.481 µM
- TGI (SR leukemia): 20.5 µM
- GI50 (SW-620 colon): 1.17 µM
- TGI (SW-620 colon): 15.2 µM
- GI50 (T-47D breast): 3.3 µM
- TGI (T-47D breast): 22.9 µM
- GI50 (TK-10 renal): 0.455 µM
- TGI (TK-10 renal): 17 µM
- GI50 (U251 CNS): 0.741 µM
- TGI (U251 CNS): 11.2 µM
- GI50 (UACC-257 melanoma): 2.09 µM
- TGI (UACC-257 melanoma): 7.13 µM
- GI50 (UACC-62 melanoma): 1.19 µM
- TGI (UACC-62 melanoma): 6.28 µM
- GI50 (UO-31 renal): 0.356 µM
- TGI (UO-31 renal): 3.24 µM
